Our source for the T/C values is PubChem BioAssay AID212 (DTP/NCI, 2004).

This experiment concerns BDF1 mice, colon carcinoma 38 sc, T/C %. Kind of experiment: NCI In Vivo Anticancer Drug Screen. Data for tumor model Colon Carcinoma 38 (subcutaneous) in B6D2F1 (BDF1) mice. In short, it runs like this:
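Ratio of survival or tumor size, compound-treated animals relative to vehicle controls, in tumor-bearing mice.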

[1] abbreviates: endpoint: median tumor weight (est.), dose: 3.0 mg/kg/injection, schedule: Q07DX002 (ip), vehicle: saline with Tween-80, higher = larger tumour.
The mark [2] stands for this setting: endpoint: median tumor weight (est.), dose: 25.0 mg/kg/injection, schedule: Q07DX002 (ip), vehicle: saline with Tween-80, higher = larger tumour.
Setting [3] is: endpoint: median tumor weight (est.), dose: 50.0 mg/kg/injection, schedule: Q07DX002 (ip), vehicle: saline with Tween-80, higher = larger tumour.
Where [4] appears, read: endpoint: median tumor weight (est.), dose: 100.0 mg/kg/injection, schedule: Q07DX002 (ip), vehicle: saline with Tween-80, higher = larger tumour.
[5] abbreviates: endpoint: median tumor weight (est.), dose: 200.0 mg/kg/injection, schedule: Q07DX002 (ip), vehicle: saline with Tween-80, higher = larger tumour.
The mark [6] stands for this setting: endpoint: median tumor weight (est.), dose: 800.0 mg/kg/injection, schedule: Q07DX002 (ip), vehicle: saline with Tween-80, higher = larger tumour.
Setting [7] is: endpoint: median tumor weight (est.), dose: 400.0 mg/kg/injection, schedule: Q07DX002 (ip), vehicle: saline with Tween-80, higher = larger tumour.
Setting [8] is: endpoint: median tumor weight (est.), dose: 100.0 mg/kg/injection, schedule: Q07DX002 (ip), vehicle: Klucel (hydroxypropylcellulose) (HPC), higher = larger tumour.
Where [9] appears, read: endpoint: median tumor weight (est.), dose: 200.0 mg/kg/injection, schedule: Q07DX002 (ip), vehicle: Klucel (hydroxypropylcellulose) (HPC), higher = larger tumour.

“And” between values parts separate entries of the source, which are not always exact repeats. Equal values may be shown once. Results filed as inconclusive are left out.

Regarding `N/C(=N\O)c1cn(C2OC(CO)C(O)C2O)c2ncnc(N)c12` (configuration not stated), the T/C runs as follows: (endpoint: median tumor weight (est.), dose: 1.0 mg/kg/injection, schedule: Q07DX002 (ip), vehicle: Klucel (hydroxypropylcellulose) (HPC), higher = larger tumour) 72 % of control; (endpoint: median tumor weight (est.), dose: 2.0 mg/kg/injection, schedule: Q07DX002 (ip), vehicle: Klucel (hydroxypropylcellulose) (HPC), higher = larger tumour) 82 % of control; (endpoint: median tumor weight (est.), dose: 4.0 mg/kg/injection, schedule: Q07DX002 (ip), vehicle: Klucel (hydroxypropylcellulose) (HPC), higher = larger tumour) 79 % of control; (endpoint: median tumor weight (est.), dose: 4.0 mg/kg/injection, schedule: Q07DX003 (ip), vehicle: Klucel (hydroxypropylcellulose) (HPC), higher = larger tumour) 6 % of control; (endpoint: median tumor weight (est.), dose: 8.0 mg/kg/injection, schedule: Q07DX002 (ip), vehicle: Klucel (hydroxypropylcellulose) (HPC), higher = larger tumour) 91 % of control; (endpoint: median tumor weight (est.), dose: 8.0 mg/kg/injection, schedule: Q07DX003 (ip), vehicle: Klucel (hydroxypropylcellulose) (HPC), higher = larger tumour) 17 % of control. Further, the T/C is 93 % of control (endpoint: median tumor weight (est.), dose: 16.0 mg/kg/injection, schedule: Q07DX002 (ip), vehicle: Klucel (hydroxypropylcellulose) (HPC), higher = larger tumour) and 7 % of control (endpoint: median tumor weight (est.), dose: 16.0 mg/kg/injection, schedule: Q07DX003 (ip), vehicle: Klucel (hydroxypropylcellulose) (HPC), higher = larger tumour).

On to `CC1=CC2OC3C(OC(=O)c4ccccc4)C(OC(=O)c4ccccc4)C(C)(C2(COC(=O)c2ccccc2)CC1)C31CO1` (configuration not stated), for which the T/C was 166 % of control under setting [1]; 152 % of control (endpoint: median tumor weight (est.), dose: 6.0 mg/kg/injection, schedule: Q07DX003 (ip), vehicle: saline with Tween-80, higher = larger tumour); 184 % of control (endpoint: median tumor weight (est.), dose: 12.0 mg/kg/injection, schedule: Q07DX003 (ip), vehicle: saline with Tween-80, higher = larger tumour).

For the compound `CC1CN1C(=O)NCCCCCCNC(=O)N1CC1C` (configuration not stated), the T/C (endpoint: median tumor weight (est.), dose: 5.0 mg/kg/injection, schedule: Q07DX003 (ip), vehicle: Klucel (hydroxypropylcellulose) (HPC), higher = larger tumour) is 73 % of control and 90 % of control; the T/C (endpoint: median tumor weight (est.), dose: 20.0 mg/kg/injection, schedule: Q07DX003 (ip), vehicle: Klucel (hydroxypropylcellulose) (HPC), higher = larger tumour) is 15 % of control and 34 % of control; the T/C (endpoint: median tumor weight (est.), dose: 40.0 mg/kg/injection, schedule: Q07DX003 (ip), vehicle: Klucel (hydroxypropylcellulose) (HPC), higher = larger tumour) was 34 % of control.

Turning to `N#CC(OC1OC(COC2OC(CO)C(O)C(O)C2O)C(O)C(O)C1O)c1ccccc1` (configuration not stated), the T/C is 98 % of control (endpoint: median tumor weight (est.), dose: 50.0 mg/kg/injection, schedule: Q07DX002 (ip), vehicle: water, higher = larger tumour); 87 % of control (endpoint: median tumor weight (est.), dose: 100.0 mg/kg/injection, schedule: Q07DX002 (ip), vehicle: water, higher = larger tumour); 112 % of control (endpoint: median tumor weight (est.), dose: 200.0 mg/kg/injection, schedule: Q07DX002 (ip), vehicle: water, higher = larger tumour); 102 % of control (endpoint: median tumor weight (est.), dose: 400.0 mg/kg/injection, schedule: Q07DX002 (ip), vehicle: water, higher = larger tumour); 91 % of control (endpoint: median tumor weight (est.), dose: 1600.0 mg/kg/injection, schedule: Q07DX002 (ip), vehicle: water, higher = larger tumour).

As for `CC(=O)Oc1ccc[nH]c1=O`, the T/C was 102 % of control under setting [2]; 101 % of control (endpoint: median tumor weight (est.), dose: 25.0 mg/kg/injection, schedule: Q07DX003 (ip), vehicle: saline with Tween-80, higher = larger tumour); 77 % of control under setting [3]; 70 % of control (endpoint: median tumor weight (est.), dose: 50.0 mg/kg/injection, schedule: Q07DX003 (ip), vehicle: saline with Tween-80, higher = larger tumour); 108 % of control and 92 % of control under setting [4]; 49 % of control (endpoint: median tumor weight (est.), dose: 100.0 mg/kg/injection, schedule: Q07DX003 (ip), vehicle: saline with Tween-80, higher = larger tumour). In addition, the T/C under setting [5] is 114 % of control; the T/C (endpoint: median tumor weight (est.), dose: 200.0 mg/kg/injection, schedule: Q07DX003 (ip), vehicle: saline with Tween-80, higher = larger tumour) is 114 % of control; the T/C (endpoint: median tumor weight (est.), dose: 400.0 mg/kg/injection, schedule: Q07DX003 (ip), vehicle: saline with Tween-80, higher = larger tumour) is 83 % of control; the T/C under setting [6] was 74 % of control and 75 % of control; the T/C (endpoint: median tumor weight (est.), dose: 800.0 mg/kg/injection, schedule: Q07DX003 (ip), vehicle: saline with Tween-80, higher = larger tumour) is 57 % of control.

With `CCOC(=O)[C@]1(Br)CC[C@@]1(Br)C(=O)OCC`, the T/C was 76 % of control (endpoint: median tumor weight (est.), dose: 12.5 mg/kg/injection, schedule: Q07DX002 (ip), vehicle: saline with Tween-80, higher = larger tumour); 71 % of control and 75 % of control under setting [3]; 78 % of control and 95 % of control and 96 % of control under setting [5]; 79 % of control and 80 % of control and 97 % of control under setting [7]; 113 % of control under setting [6].

As for `CN(C)C(=O)SC1=C(c2c(Cl)cccc2Cl)C(=O)c2ccccc21`, the T/C is, setting by setting: (endpoint: median tumor weight (est.), dose: 50.0 mg/kg/injection, schedule: Q07DX002 (ip), vehicle: Klucel (hydroxypropylcellulose) (HPC), higher = larger tumour) 76 % of control; under setting [8], 94 % of control; under setting [9], 86 % of control; (endpoint: median tumor weight (est.), dose: 400.0 mg/kg/injection, schedule: Q07DX002 (ip), vehicle: Klucel (hydroxypropylcellulose) (HPC), higher = larger tumour) 82 % of control; (endpoint: median tumor weight (est.), dose: 800.0 mg/kg/injection, schedule: Q07DX002 (ip), vehicle: Klucel (hydroxypropylcellulose) (HPC), higher = larger tumour) 91 % of control.

Consider `Cc1cc(NC(=S)SCc2ccc3c(c2)OCO3)ccc1Cl`, for which the T/C under setting [8] is 111 % of control and the T/C under setting [9] was 82 % of control.

For `CN=C(N)N/N=C(\C)c1ccc2c(c1)Cc1cc(/C(C)=N/NC(N)=NC)ccc1-2`, the T/C runs as follows: (endpoint: median tumor weight (est.), dose: 0.75 mg/kg/injection, schedule: Q07DX002 (ip), vehicle: saline with Tween-80, higher = larger tumour) 104 % of control; under setting [1], 115 % of control.

On to `CCOC(=O)C1=C(C#N)C2(CCC(OCc3ccccc3)CC2)C(=O)O1` (configuration not stated), for which the T/C by setting is: (endpoint: median tumor weight (est.), dose: 25.0 mg/kg/injection, schedule: Q07DX002 (ip), vehicle: saline, higher = larger tumour) 47 % of control; (endpoint: median tumor weight (est.), dose: 25.0 mg/kg/injection, schedule: Q07DX002 (ip), vehicle: suspension in saline, higher = larger tumour) 87 % of control; (endpoint: median tumor weight (est.), dose: 50.0 mg/kg/injection, schedule: Q07DX002 (ip), vehicle: saline, higher = larger tumour) 53 % of control; (endpoint: median tumor weight (est.), dose: 100.0 mg/kg/injection, schedule: Q07DX002 (ip), vehicle: saline, higher = larger tumour) 35 % of control; (endpoint: median tumor weight (est.), dose: 100.0 mg/kg/injection, schedule: Q07DX002 (ip), vehicle: suspension in saline, higher = larger tumour) 115 % of control; (endpoint: median tumor weight (est.), dose: 200.0 mg/kg/injection, schedule: Q07DX002 (ip), vehicle: saline, higher = larger tumour) 73 % of control. For the same compound, the T/C (endpoint: median tumor weight (est.), dose: 400.0 mg/kg/injection, schedule: Q07DX002 (ip), vehicle: saline, higher = larger tumour) was 47 % of control; the T/C (endpoint: median tumor weight (est.), dose: 400.0 mg/kg/injection, schedule: Q07DX002 (ip), vehicle: suspension in saline, higher = larger tumour) was 102 % of control; the T/C (endpoint: median tumor weight (est.), dose: 800.0 mg/kg/injection, schedule: Q07DX002 (ip), vehicle: saline, higher = larger tumour) is 64 % of control; the T/C (endpoint: median tumor weight (est.), dose: 800.0 mg/kg/injection, schedule: Q07DX002 (ip), vehicle: suspension in saline, higher = larger tumour) was 102 % of control.

`OCC1OC(n2cnc3c(Cl)ncnc32)C(O)C1O` (configuration not stated): the T/C (endpoint: median tumor weight (est.), dose: 1600.0 mg/kg/injection, schedule: Q07DX002 (ip), vehicle: saline, higher = larger tumour) is 82 % of control.

Take `c1ccc2c(c1)-c1ccccc1C1NC21` (configuration not stated): the T/C runs as follows: (endpoint: median tumor weight (est.), dose: 12.0 mg/kg/injection, schedule: Q07DX002 (ip), vehicle: saline with Tween-80, higher = larger tumour) 104 % of control; under setting [2], 117 % of control; under setting [3], 93 % of control.

On to `CCCCCCCC(=O)N/N=C(\CO)[C@]1(O)Cc2c(O)c3c(c(O)c2[C@@H](OC2CC(N)C(O)C(C)O2)C1)C(=O)c1c(OC)cccc1C3=O` (some centres not stated), for which the T/C runs as follows: (endpoint: median survival time, dose: 30.0 mg/kg/injection, schedule: Q07DX002 (sc), vehicle: saline, higher = longer survival) 100 % of control; (endpoint: median survival time, dose: 48.0 mg/kg/injection, schedule: Q07DX002 (sc), vehicle: saline, higher = longer survival) 75 % of control; (endpoint: median survival time, dose: 126.0 mg/kg/injection, schedule: Q07DX002 (sc), vehicle: saline, higher = longer survival) 105 % of control; (endpoint: median tumor weight (est.), dose: 6.75 mg/kg/injection, schedule: Q07DX002 (ip), vehicle: distilled water + Tween-80, higher = larger tumour) 84 % of control; (endpoint: median tumor weight (est.), dose: 6.75 mg/kg/injection, schedule: Q07DX002 (ip), vehicle: suspension in saline, higher = larger tumour) 97 % of control; (endpoint: median tumor weight (est.), dose: 13.5 mg/kg/injection, schedule: Q07DX002 (ip), vehicle: suspension in saline, higher = larger tumour) 73 % of control. For the same compound, the T/C reads like this: (endpoint: median tumor weight (est.), dose: 27.0 mg/kg/injection, schedule: Q07DX002 (ip), vehicle: suspension in saline, higher = larger tumour) 101 % of control; (endpoint: median tumor weight (est.), dose: 54.0 mg/kg/injection, schedule: Q07DX002 (ip), vehicle: distilled water + Tween-80, higher = larger tumour) 18 % of control and 41 % of control; (endpoint: median tumor weight (est.), dose: 54.0 mg/kg/injection, schedule: Q07DX002 (ip), vehicle: suspension in saline, higher = larger tumour) 58 % of control.

As for `NC(=S)N/N=C/c1ccc(OC(=O)COc2ccccc2)cn1`, the T/C under setting [2] was 88 % of control; the T/C under setting [3] is 88 % of control; the T/C under setting [4] is 55 % of control; the T/C under setting [5] is 72 % of control; the T/C under setting [7] is 57 % of control.
